{"source": "patent US20100003271A1", "about": "“NITRIC OXIDE INCREASES SWITCHING OF T CELLS INTO T REGULATORY CELLS” (BOARD OF REGENTS OF THE UNIVERSITY OF TEXAS SYSTEM, priority 2006, published 2010)", "type_in_all_cases": "cell-based, human", "key": {"PBLs": {"test_system": "PBLs", "assay": "Generation of CD4+CD25highCD127- Treg cells in PBL culture (FACS)", "description": "PBLs or purified T cells were either left untreated or treated with 10 μg/ml phytohemagglutanin (PHA, Sigma-Aldrich) at 1×10^6 cells/2 mL in 24-well plates in the absence or presence of various concentrations of SNAP-DMSO, DMSO or SNP and cultured in RPMI-10 for 5 days. Cells were then harvested and stained with anti-human CD4-PerCP, anti-human CD25-APC and anti-human CD127-PE Abs. Flow cytometry analysis measured CD4^+CD25^high CD127^low versus CD4^+CD25^highCD127^high populations using FACSAria with Diva program or FACSCalibur with CellQuest software (BD Pharmingen, San Diego, Calif.)."}, "PHA-activated PBLs": {"test_system": "PHA-activated PBLs", "assay": "Intracellular FoxP3 staining of CD4+CD25highCD127- population", "conditions": "PHA-activated PBLs, 30, 50, 100 μM SNAP, 5 days, FIG. 3", "description": "Foxp3 intracellular staining was carried out using the FITC anti-human Foxp3 staining kit (BDBiosciences, San Diego, Calif.; Cat no 71-5776-40). In brief, PBLs from various groups were incubated with anti-human CD4-PerCP, anti-human CD25-APC and anti-human CD127-PE Abs for 20 minutes at room temperature for surface staining of CD4, CD25 and CD127 molecules, respectively. Cells were then washed, and fixed with Fix/Perm solution (30 minutes at 4° C.) and permeabilized with permeabilization buffer followed by blocking with rat serum (15 minutes at 4° C.). Cells were then stained with FITC-conjugated anti-FoxP3 or isotype control Ab (30 minutes at 4° C.). Cells were analyzed by flow cytometry for intracellular FoxP3 levels in CD4^+CD25^high/CD127^low versus CD4^+CD25^high/CD127^high cells on a FACSAria."}, "[1]": {"test_system": "PBLs challenged with HLA-mismatched alloantigen", "assay": "Number of Treg cells generated in alloactivated PBL culture", "conditions": "100 μM SNAP, 60×10^6 PBLs, 5-day culture, FIG. 5A", "description": "Alloactivation was set up by co-culturing responder PBLs (1-2×10^6 cells/ml) in a total volume of 35 ml of RPMI-10 with fully HLA mismatched gamma-irradiated (30 Gy) stimulators (1:1 ratio) in the presence of SNAP/DMSO. After 5 days, cells were washed and stained with anti-CD4-FITC and anti-CD25-PE Abs to isolate CD4+CD25^high and CD4+CD25^intermediate populations by FACS sorting. These cell populations were then added to fresh syngeneic PBLs (1×10^5) at different responder/regulator cell ratios (1/0, 1/0.005, 1/0.01, 1/0.05, 1/0.1, 1/0.5, and 1/1) with the same HLA-mismatched irradiated stimulators (1×10^5). Cells cultured in a 200 μl volume of RPMI-10 in 96-well round-bottomed plates for 5 days and pulsed with 1 μCi of [^3H]-thymidine for last 16 hours before harvesting. Cells were collected onto glass filters using an automated multi-sample harvester and the amount of [^3H]-thymidine incorporation was measured with a scintillation counter (Packard, Meridan, Conn.). Proliferative responses are expressed as the mean [^3H]-thymidine incorporation (counts per minute [cpm]) of triplicate wells±SD. In identical experiments, PBLs were activated with PHA (10 μg/ml) to examine the ability of NO-induced CD4+CD25^high population to suppress proliferation of alloantigen-specific MLC."}, "CD4+CD25- cells": {"test_system": "CD4+CD25- cells", "assay": "CFSE labeling and T cell co-culture assay (switching of CD4+CD25- cells)", "conditions": "in the presence of Treg cells", "description": "The CD4^+CD25^negative and CD4^+CD25^high T cell populations were isolated from T cells by cell sorting (FACSAria). Next, CD4^+CD25^negative cells were labeled with carboxyfluorescein diacetate succinimidyl ester (CFDA-SE; cat no C1157, Invitrogen) as described elsewhere (Hans et al., 2005). A stock solution of CFSE (5 mM) was diluted with PBS and added to the CD4^+CD25^negative cells at final concentration of 1 µM per 1×10^6 cells (20 minutes at 37° C.). After three washings, CFSE-labeled CD4^+CD25^negative cells (1×10^6) were co-cultured without or with CD4^+CD25^high cells at 10:1 ratio without or with titrated SNAP or DMSO and 6 hours later cells were activated with PHA (10 μg/ml). Following 5 days cells were harvested and stained with anti-human CD25-APC and anti-human CD127-PE Abs to measure transformation of CD^4+CD25^negative cells to CD25^+CD127^negative cells by FACS. The same cells were added to a primary syngeneic MLC at responder/regulator cell ratios (1/0, 1/0.25, 1/0.5, and 1/1). Cells were cultured for 5 days and the [^3H]-thymidine incorporation was measured as described above."}}, "data": [{"compound": "CC(=O)NC(C(=O)O)C(C)(C)SN=O", "note": "(racemic) [SNAP, S-Nitroso-N-acetyl-DL-penicillamine]", "values": [{"measurement": "levels of CD4+CD25+CD127- Treg cells", "setting": "PBLs; PHA-activated PBLs, 5-day culture, FIG. 2B", "result": "significantly increased"}, {"measurement": "increase in generation of CD4+CD25+CD127-FoxP3+ Treg cells", "setting": "PBLs; low NO concentrations (10-100 μM nitrite)", "result": 3, "unit": "fold"}, {"measurement": "number of CD4+CD25+CD127- Treg cells", "setting": "PBLs; non-activated PBLs", "result": "did not affect"}, {"measurement": "generation of Foxp3-positive CD4+CD25+CD127- Treg cells", "setting": "PHA-activated PBLs", "result": "induces generation of Foxp3-positive"}, {"measurement": "number of Treg cells generated relative to culture without SNAP", "setting": "[1]", "result": "~3", "unit": "fold"}, {"measurement": "switching of CD4+CD25- cells into CD4+CD25+CD127-FoxP3+ T regulatory (Tr1) cells", "setting": "CD4+CD25- cells", "result": "elevated switching"}]}]}
